# Activity calls are given as the source filed them. The rule behind the calls is not given here.
# Target: Aryl hydrocarbon receptor (Homo sapiens) (UniProt P35869)
# Experiment: AHR activator potency, dose response, cell-based, luminescence, luciferase reporter, human (AID 493060)
# Details: Human cell line AHR-responsive luciferase reporter
# Chain of Aryl hydrocarbon receptor (Homo sapiens) (P35869 whole entry, looked up): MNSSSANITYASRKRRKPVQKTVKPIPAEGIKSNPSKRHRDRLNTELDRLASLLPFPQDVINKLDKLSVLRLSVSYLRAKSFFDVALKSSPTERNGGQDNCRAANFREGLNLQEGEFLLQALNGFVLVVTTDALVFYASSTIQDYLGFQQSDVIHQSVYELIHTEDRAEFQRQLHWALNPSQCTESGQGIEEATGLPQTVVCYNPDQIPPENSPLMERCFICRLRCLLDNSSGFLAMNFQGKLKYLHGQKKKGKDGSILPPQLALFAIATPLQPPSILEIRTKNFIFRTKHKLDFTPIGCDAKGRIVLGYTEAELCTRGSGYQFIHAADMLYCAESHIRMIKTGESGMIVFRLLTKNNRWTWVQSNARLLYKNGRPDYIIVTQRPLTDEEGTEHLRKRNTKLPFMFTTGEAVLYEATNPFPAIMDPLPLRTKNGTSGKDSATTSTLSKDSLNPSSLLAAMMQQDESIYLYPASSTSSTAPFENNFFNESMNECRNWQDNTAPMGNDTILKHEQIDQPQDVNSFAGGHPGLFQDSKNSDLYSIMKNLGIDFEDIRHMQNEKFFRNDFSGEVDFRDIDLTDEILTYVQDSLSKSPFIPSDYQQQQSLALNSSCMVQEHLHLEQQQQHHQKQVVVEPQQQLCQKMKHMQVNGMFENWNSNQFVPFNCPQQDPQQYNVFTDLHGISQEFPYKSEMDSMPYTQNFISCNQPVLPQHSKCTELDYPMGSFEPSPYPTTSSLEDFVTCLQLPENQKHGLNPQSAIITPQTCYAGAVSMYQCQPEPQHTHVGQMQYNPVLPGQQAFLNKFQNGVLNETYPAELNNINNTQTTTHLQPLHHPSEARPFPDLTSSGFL
row,EC50,Structure (SMILES)
1,1860 nM,COc1ccc(NC(=O)c2cccc3c(Br)cccc23)cc1
2,747 nM,COc1cc2ccccc2cc1C(=O)Nc1ccc(C)cc1
3,683 nM,Cc1csc(SCC(=O)Nc2ccc(Cl)cn2)n1
4,1340 nM,CCOc1ccc(-c2cc(C)n3nc(C(N)=O)cc3n2)cc1
5,3330 nM,CN(C)c1nc(N)nc(-c2nc3ccccc3s2)n1
6,513 nM,Cc1c(-c2ccn[nH]2)cc(NC(=O)c2ccc(Cl)cc2)c(=O)n1N
7,968 nM,CC(=O)c1ccc(NC(=O)c2cc(Cl)nc3ccccc23)cc1
8,1080 nM,CCOC(=O)Cc1cc(-c2ccc(O)cc2)nc2ccc3ccccc3c12
9,1400 nM,Cc1nc(N)nc(Nc2ccc(Cl)cc2)c1Br
10,282 nM,CN1CCN(CCCNC(=O)c2cc3c(-c4ccc(Cl)cc4)nn(C)c3s2)CC1
11,250 nM,CCCC(=O)Nc1nn(C)c2nc3cc(C)ccc3cc12
12,1130 nM,Cc1ccc(Nc2ncccc2C(N)=O)cc1
13,889 nM,COc1cc2c(cc1NC(=O)Nc1ccc(C)cc1)oc1ccccc12
14,2490 nM,CCC(=O)Nc1cc(OC)c(NC(=O)c2ccccc2)cc1OC
15,260 nM,Cn1c(C(=O)N2CCC(C(N)=O)CC2)cc2cc(Cl)ccc21
16,217 nM,Cc1cc(Nc2ccc(Br)cc2)n2nc(C)nc2n1
17,3240 nM,O=C1c2ccccc2-c2nc3ccccc3nc21
18,6250 nM,O=C(CN1CCOCC1)Nc1nc2ccc([N+](=O)[O-])cc2s1
19,2980 nM,COc1ccccc1C(=O)Nc1ccc(N2CCCCC2)cc1
20,2840 nM,CCOc1ccccc1NC(=O)c1ccc2nccnc2c1
21,2570 nM,COC(=O)c1ccccc1NC(=O)Cn1ccnc1
22,767 nM,Cn1c(N)c(C(=O)Nc2ccccc2F)sc1=S
23,853 nM,Cc1ccc(-c2cc(-c3cccs3)[nH]n2)c(O)c1
24,1780 nM,CCOc1ccc(NC(=O)c2cc3ccccc3cc2OC)cc1
25,2410 nM,COc1ccc(Cl)cc1C(=O)Nc1ccc(N(C)C(C)=O)cc1
26,inactive,O=C(Nc1ccon1)c1cnc2sccn2c1=O
27,1330 nM,Cc1ccccc1-c1nc(-c2cccnc2)no1
28,1620 nM,COc1ccc(C(=O)Nc2cc(OC)c(NC(=O)c3ccco3)cc2OC)cc1
29,1470 nM,COc1ccccc1NC(=O)Nc1cccnc1
30,139 nM,COc1ccccc1NC(=O)c1ccc2c(c1)nnn2C

# — PubChem BioAssay AID493060 (The Scripps Research Institute Molecular Screening Center, 2011)
